target: Lanosterol 14-alpha demethylase (Candida albicans (strain SC5314 / ATCC MYA-2876) (Yeast), UniProt P10613); assay: Anticandida activity- (MIC90 compound) / (MIC90 bifonazole); type: functional
Sequence (P10613 whole entry): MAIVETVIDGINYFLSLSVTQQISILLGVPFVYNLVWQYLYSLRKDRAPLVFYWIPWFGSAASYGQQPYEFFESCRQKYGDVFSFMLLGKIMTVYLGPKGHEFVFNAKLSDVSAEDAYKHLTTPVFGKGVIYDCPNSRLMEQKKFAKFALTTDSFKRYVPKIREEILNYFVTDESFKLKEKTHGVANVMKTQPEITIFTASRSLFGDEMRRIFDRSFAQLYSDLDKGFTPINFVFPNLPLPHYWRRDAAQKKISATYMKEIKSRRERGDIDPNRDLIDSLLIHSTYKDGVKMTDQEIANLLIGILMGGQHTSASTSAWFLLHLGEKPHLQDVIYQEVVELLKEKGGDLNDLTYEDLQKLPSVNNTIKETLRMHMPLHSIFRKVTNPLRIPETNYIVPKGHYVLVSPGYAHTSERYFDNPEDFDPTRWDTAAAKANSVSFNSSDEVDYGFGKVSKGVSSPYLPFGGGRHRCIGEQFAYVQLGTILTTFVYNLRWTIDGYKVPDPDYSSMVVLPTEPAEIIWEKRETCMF

Q: With `Fc1ccc([C@H](c2ccn(-c3ccccc3)c2)n2ccnc2)cc1` as the compound, how does the Ratio read?
A: The Ratio was 2.

Q: For `COc1ccc(C[C@@H](c2ccc(OC)cc2)n2cnnc2)cc1`, which Ratio is on record?
A: The Ratio was 64.

Q: Which Ratio does the source give for `Cc1ccc([C@H](c2ccn(-c3ccc(F)cc3)c2)n2ccnc2)cc1` here?
A: The Ratio was 1.9.

Q: How did the Ratio turn out when `COc1ccc([C@@H]([C@@H](Cc2ccc(Cl)cc2Cl)c2ccc(Cl)cc2)n2ccnc2)cc1` was run?
A: Its Ratio is 10.5.

Q: How did the Ratio turn out when `CC[C@@H](c1ccc([N+](=O)[O-])cc1)[C@H](c1ccc(OC)cc1)n1ccnc1` was run?
A: Its Ratio is 7.3.

Q: Which Ratio does the source give for `COc1ccc(-c2cn(Cc3ccc(Cl)cc3Cl)cc2[C@@H](c2ccccc2)n2ccnc2)cc1` here?
A: The Ratio was 41.

Q: For `Cc1ccc([C@@H](c2ccc(NC(=O)c3ccc(Cl)cc3Cl)cc2)n2ccnc2)cc1`, which Ratio is on record?
A: Its Ratio is 0.7.

Q: For `COc1ccc([C@H](Cc2cccc(Cl)c2)n2ccnc2)cc1`, which Ratio is on record?
A: Its Ratio is 32.

Q: Which Ratio does the source give for `Cc1ccc([C@H](c2ccc([N+](=O)[O-])cc2)n2ccnc2)cc1` here?
A: The Ratio was 0.5.

Q: How did the Ratio turn out when `COc1ccc([C@H](Cc2ccc(Cl)cc2)n2cnnc2)cc1` was run?
A: Its Ratio is 63.

Q: `Nc1ccc([C@@H](c2ccccc2)n2ccnc2)cc1` was tested. Which Ratio did it give?
A: Its Ratio is 2.5.

Q: For `COc1ccc([C@H](Cc2ccc([N+](=O)[O-])cc2)n2ccnc2)cc1`, which Ratio is on record?
A: Its Ratio is 32.

Q: `c1ccc([C@H](c2ccn(-c3ccccc3)c2)n2ccnc2)cc1` was tested. Which Ratio did it give?
A: The Ratio was 4.1.

Q: Which Ratio does the source give for `COc1ccc([C@H](Cc2ccccc2-n2cccc2)n2ccnc2)cc1` here?
A: Its Ratio is 7.2.

Reference: ChEMBL document CHEMBL1135477, “Antifungal agents. 10. New derivatives of 1-[(aryl)[4-aryl-1H-pyrrol-3-yl]methyl]-1H-imidazole, synthesis, anti-candida activity, and quantitative structure-analysis relationship studies” (J Med Chem, 2002)
